Test system: EpiDerm™ Skin Model
Assay: Skin Irritancy Potential Test via in vitro skin equivalents (IL-1α release)
Assay type: cell-based, human
Details: Table 12; vs C30
Description: The EpiDerm™ Skin Model provided by MatTek Corporation was used in this study. The target cells are epithelial, derived from human skin. The test materials are applied directly to the culture surface, at air interface, so that undiluted and/or end use dilutions can be tested directly.
The experimental design used in this study consisted of a definitive assay to determine the release of one cytokine. Where tissue viability is not decreased by 50% as compared to the negative control tissue (as measured by MTT reduction), the inflammatory potential is then measured by the synthesis/release of the cytokine IL-1α.
In the treatment phase six skin equivalents are used for each diluted test product, individual results are averaged to provide overall response. 100 μl is applied to each equivalent for 1 hour of diluted product (10% dilution) exposure followed by 5 rinses of Ca, Mg Free PBS solution. Each Tissue is placed in a 6 well tray with assay medium for each rinse and returned to incubation for 24 hours. Following incubation tissues are assessed for cytokine responses of IL-1α.

Polyglycerol-10-Myristate [PG-10-M]
effect of PGE on mildness of the surfactant system: improve the mildness

Polyglycerol-10-Oleate [PG-10-O]
effect of PGE on mildness of the surfactant system: improve the mildness
